Ki and Selectivity data for five molecules are collected here from patent publication US6919457B2, “3-(imidazolyl)-2-aminopropanoic acids” (Pfizer, Inc., priority 2002, dated 2005).

The target in one assay is T1, TAFIa (Homo sapiens, UniProt Q96IY4).
T1 sequence (Q96IY4 115-423): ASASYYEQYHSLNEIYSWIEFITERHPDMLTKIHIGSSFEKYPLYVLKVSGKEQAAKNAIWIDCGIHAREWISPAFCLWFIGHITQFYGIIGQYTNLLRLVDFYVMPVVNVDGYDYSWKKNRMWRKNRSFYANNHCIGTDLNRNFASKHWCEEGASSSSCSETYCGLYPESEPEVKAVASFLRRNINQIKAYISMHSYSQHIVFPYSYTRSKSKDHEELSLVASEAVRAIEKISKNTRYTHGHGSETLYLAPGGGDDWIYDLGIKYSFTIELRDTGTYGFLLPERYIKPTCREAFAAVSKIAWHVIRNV
The assay can be described thus: Assay for TAFIa inhibition (Ki determination, FAAL substrate hydrolysis). Particulars: calculated from IC50 using the Cheng-Prusoff equation, activated human TAFI, 24° C. The format is biochemical. How it is done: The compounds of the present invention may be tested using the following assay, which is based on that disclosed in Boffa et al., J. Biol. Chem. 1998, 273, 2127. The compounds are incubated with activated TAFI and a standard substrate for TAFIa, the rate of hydrolysis of the substrate is determined and compared to the rate of hydrolysis in the absence of the compounds, and the amount of inhibition expressed in terms of Ki.
Human TAFI (recombinant or purified) was activated by incubating 20 μl of stock solution (360 μg/ml) with 10 μl of human thrombin (10 NIH units/ml), 10 μl of rabbit thrombomodulin (30 μg/ml), 6 μl calcium chloride (50 mM) in 50 μL of 20 mM HEPES (N-[2-hydroxyethyl]piperazine-N-[2-ethanesulfonic acid]) buffer containing 150 mM sodium chloride and 0.01% TWEEN 80 (polyoxyethylene-sorbitan monooleate) pH 7.6 for 20 minutes at 22° C. At the end of the incubation period, thrombin was neutralised by the addition of 10 μL of PPACK (D-Phe-Pro-Arg chloromethyl ketone) (100 nM). The resulting TAFIa solution was stored on ice for 5 minutes and finally diluted with 175 μl of HEPES buffer.
ii) Ki Determination (TAFIa)
(§1) A number of different dilutions of the test compound in water were made up. To 20 μl of each dilution was added 150 μl of HEPES buffer and 10 μl of TAFIa, which was then pre-incubated for 15 minutes at 24° C. To each dilution was then added 20 μl furylacryloyl-alanyl-lysine (FAAL) at a standard concentration. Substrate turnover was measured by reading the absorbance of the reaction mixture at 330 nm every 15 seconds for 30 minutes. The reaction was performed at 24° C. and samples were mixed for 3 seconds prior to each absorbance reading.
(§2) A graph of % inhibition against test compound concentration was then plotted; from which was calculated the IC50 value. The Ki value was then calculated using the Cheng-Prusoff equation.
Two controls, positive and negative, were used to check the accuracy of the results in each case. For the first control, the assay was performed as above, but with 20 μl of water rather than a dilution of the test compound. […] For the second control, the assay was performed as above, but with an effective amount of a non specific carboxypeptidase inhibitor rather than a dilution of the test compound.

Another assay concerns the target T2, human CPN (Homo sapiens, UniProt P15169).
T2 sequence (P15169 21-458): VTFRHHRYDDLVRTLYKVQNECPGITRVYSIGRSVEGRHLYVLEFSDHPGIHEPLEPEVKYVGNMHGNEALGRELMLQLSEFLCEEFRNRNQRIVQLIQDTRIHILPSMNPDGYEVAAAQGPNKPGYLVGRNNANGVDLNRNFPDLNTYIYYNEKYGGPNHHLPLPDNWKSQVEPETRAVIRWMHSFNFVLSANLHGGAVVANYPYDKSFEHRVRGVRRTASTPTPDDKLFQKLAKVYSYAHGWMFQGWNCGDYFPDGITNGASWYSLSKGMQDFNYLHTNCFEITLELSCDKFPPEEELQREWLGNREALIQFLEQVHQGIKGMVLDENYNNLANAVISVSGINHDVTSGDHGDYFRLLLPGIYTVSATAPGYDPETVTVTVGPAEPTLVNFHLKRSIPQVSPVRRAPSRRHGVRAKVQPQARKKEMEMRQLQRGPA
T2 sequence (P22792 22-545 partner): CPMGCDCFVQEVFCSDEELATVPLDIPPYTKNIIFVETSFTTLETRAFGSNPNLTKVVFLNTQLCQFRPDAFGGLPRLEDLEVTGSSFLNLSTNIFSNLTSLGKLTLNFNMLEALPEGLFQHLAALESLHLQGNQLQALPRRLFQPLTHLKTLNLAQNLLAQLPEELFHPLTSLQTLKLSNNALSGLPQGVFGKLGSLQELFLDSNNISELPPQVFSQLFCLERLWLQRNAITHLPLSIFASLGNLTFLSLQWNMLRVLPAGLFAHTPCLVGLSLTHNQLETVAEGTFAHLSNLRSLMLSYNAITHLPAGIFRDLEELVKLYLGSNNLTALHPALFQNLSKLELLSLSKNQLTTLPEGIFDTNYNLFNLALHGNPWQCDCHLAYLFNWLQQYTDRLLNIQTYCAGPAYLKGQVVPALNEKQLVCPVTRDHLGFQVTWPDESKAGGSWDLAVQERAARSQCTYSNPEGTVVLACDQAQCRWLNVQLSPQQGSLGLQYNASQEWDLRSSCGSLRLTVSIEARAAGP
Nature of the assay: CPN Ki determination (TAFIa assay with human CPN substituted for TAFIa). The format is biochemical. The conditions noted are these: for Ki: human CPN substituted for TAFIa, calculated Ki; for Selectivity: selectivity for TAFIa over CPN, comparing Ki for CPN with Ki for TAFIa. The procedure:
as §1, §2
The selectivity of the compounds of the present invention for TAFIa over CPN was determined by calculating the Ki of the compounds of the present invention for CPN, then comparing it to the Ki for TAFIa. The Ki was calculated using the assay for the calculation of TAFIa Ki, but substituting 10 μl of human CPN for 10 μl of TAFIa.

For `N[C@H]1CCN([C@@H](Cc2c[nH]cn2)C(=O)O)C1` [Example 2, (+)-(2S)-2-[(3S)-3-Aminopyrrolidinyl]-3-(1H-imidazol-4-yl)propanoic Acid], the inhibition constant (Ki) at TAFIa was 0.06 µM.

As to `CCCn1cnc(C[C@@H](C(=O)O)N2CC[C@H](N)C2)c1` [Example 4, (+)-(2S)-2-[(3S)-3-Aminopyrrolidinyl]-3-(1-propyl-1H-imidazol-4-yl)propanoic Acid], at human CPN, the inhibitory constant (Ki) was more than 10 µM and the Selectivity is recorded as more than 450. The inhibition constant (Ki) on TAFIa is 0.022 µM.

As for `N[C@H]1CCN([C@@H](Cc2cn(CCC3CCCCC3)cn2)C(=O)O)C1` [Example 6, (+)-(2S)-2-[(3S)-3-Aminopyrrolidinyl]-3-[1-(2-cyclohexylethyl)-1H-imidazol-4-yl]propanoic Acid], on human CPN, the Ki was more than 10 µM and the Selectivity is more than 1400. The inhibition constant Ki on TAFIa is 0.007 µM.

Take `N[C@H]1CCN([C@@H](Cc2cn(CCc3ccccc3)cn2)C(=O)O)C1` [Example 8, (+)-(2S)-2-[(3S)-3-Aminopyrrolidinyl]-3-[1-(2-phenylethyl)-1H-imidazol-4-yl]propanoic Acid]: the Ki at TAFIa was 0.01 µM.

As for `N[C@H]1CCN([C@@H](Cc2cn(-c3ccccc3)cn2)C(=O)O)C1` [Example 9, (+)-(2S)-2-[(3S)-3-Aminopyrrolidinyl]-3-[1-phenyl-1H-imidazol-4-yl]propanoic Acid], the Ki on TAFIa is 0.008 µM.
